Assay results as given in patent US20050239760A1, “Angiostatic agents and methods and compositions for controlling ocular hypertension” (Alcon, Inc., priority 2004, published 2005).

System: choroidal neovascularization (CNV)
Assay: Laser-induced choroidal neovascularization (CNV) in mice, rupture of Bruch's membrane
Assay type: in vivo, C57BL/J mice
Conditions: single 5 μl intravitreal injection immediately after laser, day 14 post-laser
From the text: Choroidal neovascularization (CNV) was induced in C57BL/J mice by rupturing Bruch's membrane via focal laser photocoagulation (FIG. 3). (Tobe T, et al., AM. J. PATHOL., 153:1641-1646 (1998)). Three to four retinal burns were placed in randomly assigned eye using the Alcon 532 nm EyeLite laser (75 μm spot size, 0.1 seconds duration, 120 mW) with a slit lamp delivery system. The laser bums were used to generate a rupture in Bruch's membrane, which was indicated ophthalmoscopically by the formation of a bubble under the retina. Only mice with laser burns that produced three bubbles per eye were included in the study. Burns were typically placed at the 3, 6, 9 or 12 o'clock positions in the posterior pole of the retina, avoiding the branch retinal arteries and veins.
Each mouse was randomly assigned into one of the following treatment groups after laser: noninjected controls, sham-injected controls, vehicle-injected mice, or one of three anecortave acetate-injected groups. Control mice received laser photocoagulation in both eyes, where one eye received a sham injection, i.e. a pars plana needle puncture. For intravitreal-injected animals, one laser-treated eye received a 5 μl intravitreal injection of 0%, 0.1%, 1%, or 10% anecortave acetate. The intravitreal injection was performed immediately after laser photocoagulation.
Fourteen days post-laser, all mice were euthanized and systemically perfused with fluorescein-labeled dextran. Eyes were then harvested and prepared as choroidal flat mounts, and the 2-dimensional CNV area was quantified with computerized digital analysis. (Mori K., et al., AM. J. PATHOL. 159:313-320 (2001)). The median CNV area/burn per mouse per treatment was used for statistical analysis; P≦0.05 was considered significant.

Compound: CC(=O)OCC(=O)[C@@]1(O)CC[C@H]2[C@@H]3CCC4=CC(=O)CC[C@]4(C)C3=CC[C@@]21C [anecortave acetate, 4,9(11)-pregnadien-17α,21-diol-3,20-dione-21-acetate]
- CNV versus vehicle-injected controls (0.1% anecortave acetate): No difference
- CNV versus vehicle-injected controls (1% anecortave acetate): No difference
- inhibition of CNV (median CNV area/burn) as compared to vehicle-injected eyes (10% anecortave acetate, Mann-Whitney P<0.001): 57.8%
